# Counter-ions that a name gives are not always drawn. Like-named read-outs stand apart in the source and are kept apart here.
# Columns and labels:
# [1] = Effect on nerve cell survival and toxicity in culture (dissociated neonatal rat cerebellum); type: cell-based; conditions: rat, cerebellar nerve cells
# Method: (§1) A concentration-dependent (dose-response) effect on nerve cell survival was determined for each compound at a concentration range of 0.001-5000 micromolar (μM). The compounds were added to 3-day-old cultures and the effect was examined 24 hours later.
# (§2) Nerve cell survival was evaluated by phase contrast microscopy and trypan blue exclusion staining.
# (§3) The results, summarized in Table 1, show the compound concentrations at which 20% or more cells survived (Survival) relative to controls, and at which 50% of the cells died (TD50) when compared to controls. Control cultures were grown in enriched medium alone and represent 100% values.
# [2] = system: pyramidal neurons of the CA1 layer of the anterior hippocampus; test: animal or person; type: in vivo
# Method: Male mongolian gerbils, aged 2.5-5 months, housed 4-8 in a cage, are supplied freely with food and water and maintained at 24° C. with a 12 hour day/night cycle. For surgery, the animals are anesthetized with halothane (1.5% in 100% O2) and the common carotid arteries exposed bilaterally through a midline ventral neck incision. Each artery is clamped for 5 minutes with aneurysm clips to produce global brain ischemia. The anesthesia is discontinued upon clamping. After 5 minutes the clamps are removed and the wound closed with skin clips
# For treatment, the test compound or saline (0.9% NaCl, vehicle) are injected intraperitoneally (ip) in a volume of 50 microliters of solvent per 10 g body weight. The first injection is given 5 minutes after clamp removal, and thereafter daily for the next 2 post-operative days (total of 3 injections).
# Four general groups, each of 4-8 animals were compare:
# 1. Control (sham, or unoperated and vehicle treated);
# 2. Ischemia, untreated or vehicle treated;
# 3. Ischemia, test compound treated, one sub-group per concentration tested;
# 4. Ischemia and pentobarbital (40 mg/kg) as positive control.
# Analysis of neuronal damage was performed 14 days post-ischemia by counting pyramidal neurons throughout the CA1 layer of the anterior hippocampus in 4 micrometer thick (paraffin) coronal brain sections, stained with hematoxylin eosin. Values of cell numbers in the hippocampi of individual gerbils were expressed as percent of intact controls (control cell counts were 275±25 cells/mm^2).
# Percent Protection values represent the fraction of hippocampi protected from ischemia in a group of animals treated with the stated dose of compound.
# [3] = system: nerve cell survival after NMDA neurotoxic challenge; test: Reversal of N-methyl-D-aspartate induced cell death in culture; conditions: for Percent Protection: after NMDA, survival minus NMDA effect
# Method: The cerebellum is aseptically dissociated from 6 or 7-day old rat pups and placed in a 15 ml sterile plastic conical tube containing 3 ml of Dulbecco's modified Eagle's medium containing high glucose concentration ([…]), 2 Mm (v/v) L-glutamine and an antibiotic mixture. The cerebella are then dissociated after 20-25 passages through a sterile 13 gauge, 10 cm long stainless steel needle attached to a 5 ml syringe with an inserted 45 micrometer pore nylon sieve. The dissociated cells are centrifuged at 200 g for 5 minutes. The supernatant is discarded and the cells resuspended in medium enriched with 15% (v/v) heat inactivated fetal calf serum. Cell viability is determined by the trypan blue exclusion test.
# Cells are plated at a density of 200/mm^2 on poly-L-lysine coated surfaces which are prepared at least one hour in advance of plating by covering the surfaces (plastic Petri dishes or glass coverslips) with sterile distilled water solution containing 15 micrograms/ml poly-L-lysine, and washing in sterile water just prior to use. The plated cells are covered with enriched medium and incubated at 37° C. in an atmosphere of 5% CO2 in air and 97% humidity. After three days in culture, the media is replaced with media containing the desired compound. Each compound is tested in duplicate and each experiment repeated at least once.
# Four groups were run in each set of experiments:
# 1. Control, consisting of cells grown in enriched media alone;
# 2. N-methyl-D-aspartate (NMDA, 1 Mm for 3 hours) as the cytotoxic challenge;
# 3. Test compound added after the NMDA challenge;
# 4. Positive control, spermine or spermidine (0.01 μM) after NMDA.
# The number of surviving cells was examined 24 hours after the challenge. Surviving cells in culture are measured relative to control (100%) as described above. Percent Protection is the cell survival for the test compound minus the NMDA effect. […] The Effective Protection value was calculated as the percent of the Percent Protection (X) divide by the maximal protection value (e.g. X×100/70).
# [4] = system: intracellular imidazoline receptors; conditions: background; cited from earlier work
# nicotine receptors = conditions: background; cited from earlier work
# NMDA receptors = conditions: background; cited from earlier work
# [5] = animals; background; cited from earlier work
# cell proliferation = test: Toxicity and cell proliferation, general statement; type: cell-based
# [6] = system: ADP-ribosylation of proteins; conditions: acts as ADP-ribose acceptor; background; cited from earlier work
# nerve cell survival = test: Effect on nerve cell survival and toxicity in culture (dissociated neonatal rat cerebellum); type: cell-based; conditions: 24 hours
# Method: as §1, §2, §3
# [7] = system: ischemia-induced nerve cell death; conditions: gerbils; Gilad et al. 1989, 1991, 1992; cited from earlier work
# [8] = TD50 (concentration at which 50% of the cells died)
# [9] = Meriones unguiculatus, Pyramidal neuron, ip, 336 h, read-out: Percent Protection
# [10] = Rattus norvegicus, 24 h, read-out: Effective Protection
# [11] = Rattus norvegicus, 24 h, read-out: Surviving Cells in Culture
# [12] = 24 hours, 3-day-old cultures, read-out: TD50 (concentration at which 50% of the cells died)
compound,measurement,setting,value
Clc1ccc2c(c1)Nc1ccccc1S2 [2-Cl-phenothiazine],CC50 at 24 h,[1]; [8],5 µM
same,responders at 10 mg/kg,[2]; [9],65%
same,Percent Protection,[3]; 10 μM,15%
same,Percent Protection,[3]; 50 μM,32%
same,inhibition at 10 µM,[3]; [10],21%
same,inhibition at 50 µM,[3]; [10],46%
same,viability at 10 µM,[3]; [11],45%
same,viability at 50 µM,[3]; [11],62%
C1C2CC3CC1CC(C2)C3 [Adamantane],CC50 at 24 h,[1]; [8],1000 µM
same,responders at 50 mg/kg,[2]; [9],23%
same,Percent Protection,[3]; 10 μM,13%
same,Percent Protection,[3]; 50 μM,20%
same,inhibition at 10 µM,[3]; [10],19%
same,inhibition at 50 µM,[3]; [10],29%
same,viability at 10 µM,[3]; [11],43%
same,viability at 50 µM,[3]; [11],50%
"N=C(N)NCCCCN [Agmatine, agmatine]",Interaction with intracellular imidazoline receptors,[4],interaction with membrane receptors
same,Interaction with nicotine receptors,nicotine receptors,interaction with membrane receptors
same,Interaction with NMDA receptors,NMDA receptors,interaction with membrane receptors
same,CC50 at 24 h,[1]; [12],500 µM
same,responders at 10 mg/kg,[2]; [9],20%
same,responders at 50 mg/kg,[2]; [9],50%
same,responders at 100 mg/kg,[2]; [9],75%
same,Insulin-like effects,[5],produces insulin-like effects in animals
same,Percent Protection,[3]; 10 μM,35%
same,Percent Protection,[3]; 50 μM,51%
same,inhibition at 10 µM,[3]; [10],50%
same,inhibition at 50 µM,[3]; [10],73%
same,viability at 10 µM,[3]; [11],65%
same,viability at 50 µM,[3]; [11],81%
same,Toxicity,cell proliferation,relatively non-toxic
same,Cell proliferation,cell proliferation; at some concentrations,accelerates cell proliferation
same,Effect on ADP-ribosylation of proteins,[6],inhibit ADP-ribosylation of proteins
"Cl.Cl.NCCCCNCCCN1c2ccccc2Sc2ccc(Cl)cc21 [G102, 2-chloro-N-(4-aminobutyl)-10H-Phenothiazine-10-propanamine-2HCl]",Shape of dose-response curve for nerve cell survival,nerve cell survival,U-shaped dose-response curve
same,toxic,"[2]; 10 mg/kg ip, ischemic gerbils, n=10",70%
same,responders at 1 mg/kg,[2]; [9],40%
same,responders at 5 mg/kg,[2]; [9],70%
same,Percent Protection,[3]; 1 μM,40%
same,Percent Protection,[3]; 50 μM,5%
same,Percent Protection,[3]; 250 μM,65%
same,inhibition at 1 µM,[3]; [10],57%
same,inhibition at 50 µM,[3]; [10],7%
same,inhibition at 250 µM,[3]; [10],93%
same,viability at 1 µM,[3]; [11],70%
same,viability at 50 µM,[3]; [11],35%
same,viability at 250 µM,[3]; [11],95%
"NCCCNCCCCNCCCN1c2ccccc2Sc2ccc(Cl)cc21 [G103, 2-chloro-N-[3-(8-spermidinyl)]-10H-Phenothiazine-10-propanamine.3 HCl]",CC50 at 24 h,[1]; [12],2 µM
same,lethality,"[2]; 0.50 mg/kg ip, ischemic gerbils, n=5",lethal
same,responders at 0.01 mg/kg,[2]; [9],42%
same,responders at 0.1 mg/kg,[2]; [9],55%
same,Percent Protection,[3]; 0.01 μM,25%
same,Percent Protection,[3]; 0.10 μM,2%
same,Percent Protection,[3]; 1 μM,-10%
same,inhibition at 0.01 µM,[3]; [10],36%
same,inhibition at 0.1 µM,[3]; [10],3%
same,viability at 0.01 µM,[3]; [11],55%
same,viability at 0.1 µM,[3]; [11],32%
same,viability at 1 µM,[3]; [11],20%
CNC1(C)C2CCC(C2)C1(C)C (centres unmarked) [Mecamylamine],CC50 at 24 h,[1]; [8],500 µM
same,responders at 10 mg/kg,[2]; [9],40%
same,Percent Protection,[3]; 25 μM,37%
same,inhibition at 25 µM,[3]; [10],53%
same,viability at 25 µM,[3]; [11],67%
"CCCC(C)C1(CC)C(=O)NC(=O)NC1=O (centres unmarked) [Pentobarbital, pentobarbital]",responders at 40 mg/kg,"[2]; Meriones unguiculatus, Pyramidal neuron, 336 h, read-out: Percent Protection",87%
NCCCCN [Putrescine],Effect against ischemia-induced nerve cell death,[7],protecting against ischemia-induced nerve cell death in gerbils
same,CC50 at 24 h,[1]; [8],300 µM
same,responders at 10 mg/kg,[2]; [9],35%
same,Percent Protection,[3]; 0.005 μM,2%
same,Percent Protection,[3]; 0.01 μM,0%
same,inhibition at 0.005 µM,[3]; [10],3%
same,inhibition at 0.01 µM,[3]; [10],0%
same,viability at 0.005 µM,[3]; [11],32%
same,viability at 0.01 µM,[3]; [11],30%
C1CN2CCC1CC2 [Quinuclidine],CC50 at 24 h,[1]; [12],100 µM
same,responders at 10 mg/kg,[2]; [9],15%
same,Percent Protection,[3]; 1 μM,5%
same,Percent Protection,[3]; 10 μM,10%
same,inhibition at 1 µM,[3]; [10],7%
same,inhibition at 10 µM,[3]; [10],14%
same,viability at 1 µM,[3]; [11],35%
same,viability at 10 µM,[3]; [11],40%
NCCCCNCCCN [Spermidine],Effect against ischemia-induced nerve cell death,[7],protecting against ischemia-induced nerve cell death in gerbils
same,CC50 at 24 h,[1]; [12],2 µM
same,responders at 10 mg/kg,[2]; [9],50%
same,Percent Protection,[3]; 0.005 μM,0%
same,Percent Protection,[3]; 0.01 μM,48%
same,inhibition at 0.005 µM,[3]; [10],0%
same,inhibition at 0.01 µM,[3]; [10],69%
same,viability at 0.005 µM,[3]; [11],30%
same,viability at 0.01 µM,[3]; [11],78%
NCCCNCCCCNCCCN [Spermine],Effect against ischemia-induced nerve cell death,[7],protecting against ischemia-induced nerve cell death in gerbils
same,CC50 at 24 h,[1],2 µM
same,responders at 10 mg/kg,[2]; [9],65%
same,Percent Protection,[3]; 0.005 μM,-5%
same,Percent Protection,[3]; 0.01 μM,38%
same,inhibition at 0.01 µM,[3]; [10],54%
same,viability at 0.005 µM,[3]; [11],25%
same,viability at 0.01 µM,[3]; [11],68%

# Source: patent publication US5677349A, “Agmatine for the treatment of neurotrauma and neurodegenerative diseases” (priority 1995, dated 1997)
